Assay results as given in patent EP1038533A1, “MEDICINAL COMPOSITIONS FOR TREATING IMMUNODEFICIENCY DISEASES” (Nippon Kayaku Kabushiki Kaisha, priority 1997, dated 1999).
Like-named read-outs stand apart in the source and are kept apart here.

Key:
[1] = tested on: HIV (human immunodeficiency virus); format: in vivo; conditions: patient
Method: (§1) The therapeutic effect of 15-deoxyspergualin for immunodeficiency was clinically investigated by administering the compound to HIV-infected patients. The details are shown below.
To a patient who was diagnosed as a HIV positive 1 year and 10 months ago, the 15-deoxyspergualin injection of Example 1 later described was intravenously administered for consecutive 15 days in a dose of 0.15 mg/kg body weight/day. This cycle was made one course. Then, no drug period was set for 6 weeks followed by repetition with 2 courses with the same interval between the second course and the third couse, as well.
The CD4^+/CD8^+ level was measured immediately before and after each course and, 3 months and 2 years after the completion of Course 3, namely, 8 measurements in total.

[2] = tested on: HIV (human immunodeficiency virus); experiment: Test Example 2: clinical administration of 15-deoxyspergualin injection to five HIV positive carriers; format: in vivo; conditions: 0.15 mg/kg body weight/day i.v. 14 days per course; for fatigue (malaise) of the worst kind: 3 courses
Method: as §1
To five (5) carriers diagnosed as HIV positive, the 15-deoxyspergualin injection was intravenously administered for consecutive 14 days in a dose of 0.15 mg/kg body weight/day. This cycle was made one course. Then, no drug period was set for 6 weeks followed by repetition with 2 courses with the same interval between the second course and the third course, as well. The CD4^+ cell count, CD4^+ /CD8^+ level and virus load, etc. were measured immediately before and after each course and 6 weeks after the completion of Course 3, respectively.

[3] = throughout the entire period of the treatment
[4] = Case 1, 6 Weeks after completion of Course 3
[5] = Case 1, Immediately after Course 1
[6] = Case 1, Immediately after Course 2
[7] = Case 1, Immediately after Course 3
[8] = Case 1, Immediately before Course 1 (before treatment)
[9] = Case 1, Immediately before Course 2
[10] = Case 1, Immediately before Course 3
[11] = Case 2, 6 Weeks after completion of Course 3
[12] = Case 2, Immediately after Course 1
[13] = Case 2, Immediately after Course 2
[14] = Case 2, Immediately after Course 3
[15] = Case 2, Immediately before Course 1 (before treatment)
[16] = Case 2, Immediately before Course 2
[17] = Case 2, Immediately before Course 3
[18] = Case 3, 6 Weeks after completion of Course 3
[19] = Case 3, Immediately after Course 1
[20] = Case 3, Immediately after Course 2
[21] = Case 3, Immediately after Course 3
[22] = Case 3, Immediately before Course 1 (before treatment)
[23] = Case 3, Immediately before Course 2
[24] = Case 3, Immediately before Course 3
[25] = Case 4, 6 Weeks after completion of Course 3
[26] = Case 4, Immediately after Course 1
[27] = Case 4, Immediately after Course 2
[28] = Case 4, Immediately after Course 3
[29] = Case 4, Immediately before Course 1 (before treatment)
[30] = Case 4, Immediately before Course 2
[31] = Case 4, Immediately before Course 3
[32] = Case 5, 6 Weeks after completion of Course 3
[33] = Case 5, Immediately after Course 1
[34] = Case 5, Immediately after Course 2
[35] = Case 5, Immediately after Course 3
[36] = Case 5, Immediately before Course 1 (before treatment)
[37] = Case 5, Immediately before Course 2
[38] = Case 5, Immediately before Course 3

Compound: N=C(N)NCCCCCCC(=O)NC(O)C(=O)NCCCCNCCCN (centres unmarked) [15-deoxyspergualin]
- CD4^+/CD8^+ level ([1]; 0.15 mg/kg body weight/day i.v. 15 days per course, 2 Years after completion of Course 3): 0.90
- CD4^+/CD8^+ level ([1]; 0.15 mg/kg body weight/day i.v. 15 days per course, 3 Months after completion of Course 3): 0.93
- CD4^+/CD8^+ level ([1]; 0.15 mg/kg body weight/day i.v. 15 days per course, Immediately after Course 1): 0.72
- CD4^+/CD8^+ level ([1]; 0.15 mg/kg body weight/day i.v. 15 days per course, Immediately after Course 2): 0.75
- CD4^+/CD8^+ level ([1]; 0.15 mg/kg body weight/day i.v. 15 days per course, Immediately after Course 3): 0.84
- CD4^+/CD8^+ level ([1]; 0.15 mg/kg body weight/day i.v. 15 days per course, Immediately before Course 1 (before treatment)): 0.68
- CD4^+/CD8^+ level ([1]; 0.15 mg/kg body weight/day i.v. 15 days per course, Immediately before Course 2): 0.78
- CD4^+/CD8^+ level ([1]; 0.15 mg/kg body weight/day i.v. 15 days per course, Immediately before Course 3): 0.87
- decrease of CD4^+/CD8^+ level immediately after Courses 2 and 3 versus immediately before the courses ([1]; 0.15 mg/kg body weight/day i.v. 15 days per course, attributed to weak bone marrow suppression): 0.03
- complaint of fatigue ([1]; 0.15 mg/kg body weight/day i.v. 15 days, after Course 1 was finished): disappeared completely
- leucocyte count [1, 3]: approximately 6200
- other side effect [1, 3]: no other side effect was observed at all
- CD4^+ T cell counts [2, 4]: 760 µL⁻¹
- CD4^+/CD8^+ levels [2, 4]: 0.93
- Virus loads [2, 4]: 6000 particles/ml
- CD4^+ T cell counts [2, 5]: 680 µL⁻¹
- CD4^+/CD8^+ levels [2, 5]: 0.82
- Virus loads [2, 5]: 8600 particles/ml
- CD4^+ T cell counts [2, 6]: 740 µL⁻¹
- CD4^+/CD8^+ levels [2, 6]: 0.86
- Virus loads [2, 6]: 8000 particles/ml
- CD4^+ T cell counts [2, 7]: 750 µL⁻¹
- CD4^+/CD8^+ levels [2, 7]: 0.93
- Virus loads [2, 7]: 7000 particles/ml
- CD4^+ T cell counts [2, 8]: 680 µL⁻¹
- CD4^+/CD8^+ levels [2, 8]: 0.78
- Virus loads [2, 8]: 12000 particles/ml
- CD4^+ T cell counts [2, 9]: 730 µL⁻¹
- CD4^+/CD8^+ levels [2, 9]: 0.80
- Virus loads [2, 9]: 9000 particles/ml
- CD4^+ T cell counts [2, 10]: 720 µL⁻¹
- CD4^+/CD8^+ levels [2, 10]: 0.85
- Virus loads [2, 10]: 8200 particles/ml
- CD4^+ T cell counts [2, 11]: 740 µL⁻¹
- CD4^+/CD8^+ levels [2, 11]: 0.78
- Virus loads [2, 11]: 13000 particles/ml
- CD4^+ T cell counts [2, 12]: 740 µL⁻¹
- CD4^+/CD8^+ levels [2, 12]: 0.72
- Virus loads [2, 12]: 13000 particles/ml
- CD4^+ T cell counts [2, 13]: 730 µL⁻¹
- CD4^+/CD8^+ levels [2, 13]: 0.77
- Virus loads [2, 13]: 14000 particles/ml
- CD4^+ T cell counts [2, 14]: 750 µL⁻¹
- CD4^+/CD8^+ levels [2, 14]: 0.79
- Virus loads [2, 14]: 14000 particles/ml
- CD4^+ T cell counts [2, 15]: 750 µL⁻¹
- CD4^+/CD8^+ levels [2, 15]: 0.76
- Virus loads [2, 15]: 15000 particles/ml
- CD4^+ T cell counts [2, 16]: 750 µL⁻¹
- CD4^+/CD8^+ levels [2, 16]: 0.78
- Virus loads [2, 16]: 13000 particles/ml
- CD4^+ T cell counts [2, 17]: 760 µL⁻¹
- CD4^+/CD8^+ levels [2, 17]: 0.80
- Virus loads [2, 17]: 15000 particles/ml
- CD4^+ T cell counts [2, 18]: 800 µL⁻¹
- CD4^+/CD8^+ levels [2, 18]: 0.90
- Virus loads [2, 18]: 6000 particles/ml
- CD4^+ T cell counts [2, 19]: 570 µL⁻¹
- CD4^+/CD8^+ levels [2, 19]: 0.73
- Virus loads [2, 19]: 11000 particles/ml
- CD4^+ T cell counts [2, 20]: 600 µL⁻¹
- CD4^+/CD8^+ levels [2, 20]: 0.75
- Virus loads [2, 20]: 7000 particles/ml
- CD4^+ T cell counts [2, 21]: 720 µL⁻¹
- CD4^+/CD8^+ levels [2, 21]: 0.90
- Virus loads [2, 21]: 6000 particles/ml
- CD4^+ T cell counts [2, 22]: 550 µL⁻¹
- CD4^+/CD8^+ levels [2, 22]: 0.69
- Virus loads [2, 22]: 17000 particles/ml
- CD4^+ T cell counts [2, 23]: 590 µL⁻¹
- CD4^+/CD8^+ levels [2, 23]: 0.72
- Virus loads [2, 23]: 11000 particles/ml
- CD4^+ T cell counts [2, 24]: 650 µL⁻¹
- CD4^+/CD8^+ levels [2, 24]: 0.84
- Virus loads [2, 24]: 8000 particles/ml
- CD4^+ cell counts [2, 25]: 910 µL⁻¹
- CD4^+/CD8^+ levels [2, 25]: 0.92
- Virus loads [2, 25]: 13000 particles/ml
- CD4^+ cell counts [2, 26]: 710 µL⁻¹
- CD4^+/CD8^+ levels [2, 26]: 0.75
- Virus loads [2, 26]: 20000 particles/ml
- CD4^+ cell counts [2, 27]: 760 µL⁻¹
- CD4^+/CD8^+ levels [2, 27]: 0.85
- Virus loads [2, 27]: 18000 particles/ml
- CD4^+ cell counts [2, 28]: 850 µL⁻¹
- CD4^+/CD8^+ levels [2, 28]: 0.94
- Virus loads [2, 28]: 15000 particles/ml
- CD4^+ cell counts [2, 29]: 640 µL⁻¹
- CD4^+/CD8^+ levels [2, 29]: 0.73
- Virus loads [2, 29]: 25000 particles/ml
- CD4^+ cell counts [2, 30]: 770 µL⁻¹
- CD4^+/CD8^+ levels [2, 30]: 0.83
- Virus loads [2, 30]: 20000 particles/ml
- CD4^+ cell counts [2, 31]: 840 µL⁻¹
- CD4^+/CD8^+ levels [2, 31]: 0.90
- Virus loads [2, 31]: 17000 particles/ml
- CD4^+ cell counts [2, 32]: 900 µL⁻¹
- CD4^+/CD8^+ levels [2, 32]: 0.90
- Virus loads [2, 32]: 6000 particles/ml
- CD4^+ cell counts [2, 33]: 750 µL⁻¹
- CD4^+/CD8^+ levels [2, 33]: 0.80
- Virus loads [2, 33]: 6000 particles/ml
- CD4^+ cell counts [2, 34]: 820 µL⁻¹
- CD4^+/CD8^+ levels [2, 34]: 0.83
- Virus loads [2, 34]: 6500 particles/ml
- CD4^+ cell counts [2, 35]: 890 µL⁻¹
- CD4^+/CD8^+ levels [2, 35]: 0.87
- Virus loads [2, 35]: 6000 particles/ml
- CD4^+ cell counts [2, 36]: 780 µL⁻¹
- CD4^+/CD8^+ levels [2, 36]: 0.79
- Virus loads [2, 36]: 6000 particles/ml
- CD4^+ cell counts [2, 37]: 810 µL⁻¹
- CD4^+/CD8^+ levels [2, 37]: 0.81
- Virus loads [2, 37]: 7000 particles/ml
- CD4^+ cell counts [2, 38]: 880 µL⁻¹
- CD4^+/CD8^+ levels [2, 38]: 0.85
- Virus loads [2, 38]: 6500 particles/ml
- fatigue (malaise) of the worst kind ([2]; Cases 1, 3 and 4): improved
- fatigue (malaise) of the worst kind ([2]; Cases 2 and 5): no change
